Reference: PubChem BioAssay (NCI)
“And” between values parts separate entries of the source, which are not always exact repeats. Equal values may be shown once.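 Cells were grown in 96-well plates and exposed to each compound for 48 hours at five concentrations; endpoints were interpolated linearly between bracketing concentrations, or set to the highest concentration if not reached. GI50 = concentration required for 50% inhibition of growth. At the TGI there is no net growth.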

Assays:
Test in all cases: DTP human tumour cell line panel, 48 h
TK-10 renal = system: TK-10 renal
NCI/ADR-RES ovarian = system: NCI/ADR-RES ovarian
SK-MEL-28 melanoma = system: SK-MEL-28 melanoma
SK-MEL-2 melanoma = system: SK-MEL-2 melanoma
786-0 renal = system: 786-0 renal
MALME-3M melanoma = system: MALME-3M melanoma
A498 renal = system: A498 renal
NCI-H522 lung = system: NCI-H522 lung
UACC-62 melanoma = system: UACC-62 melanoma
NCI-H23 lung = system: NCI-H23 lung
OVCAR-3 ovarian = system: OVCAR-3 ovarian

Row | SMILES | TGI (TK-10 renal) [µM] | TGI (NCI/ADR-RES ovarian) [µM] | TGI (SK-MEL-28 melanoma) [µM] | TGI (SK-MEL-2 melanoma) [µM] | TGI (786-0 renal) [µM] | TGI (MALME-3M melanoma) | TGI (A498 renal) [µM] | TGI (NCI-H522 lung) [µM] | TGI (UACC-62 melanoma) [µM] | TGI (NCI-H23 lung) [µM] | TGI (OVCAR-3 ovarian) | GI50 (TK-10 renal) [µM] | GI50 (NCI/ADR-RES ovarian) [µM] | GI50 (SK-MEL-28 melanoma) [µM] | GI50 (SK-MEL-2 melanoma) [µM] | GI50 (A498 renal) [µM] | GI50 (NCI-H522 lung) [µM] | GI50 (UACC-62 melanoma) [µM]
1 | Cc1ccc(OCC2OC(n3cnc4c(N(C)C)nc(Br)nc43)CC2Oc2ccc(C)cc2)cc1 (stereo not given) | > 100 | > 100 | > 100 | > 100 | > 100 | > 100 µM | > 100 | > 100 | > 100 | > 100 | > 100 µM | – | – | – | – | – | – | –
2 | CC(C)[C@@H]1CC[C@@H](C)C[C@H]1OC(=O)/C=C1/C2C=CC(O2)C1C(=O)O[C@@H]1C[C@H](C)CC[C@H]1C(C)C (stereo not given in full) | > 100 | > 100 | > 100 | – | > 100 | > 100 µM | > 100 | > 100 | > 100 | > 100 | > 100 µM | – | – | – | – | – | – | –
3 | Cc1c2c(cc3c1[nH]c1ccccc13)C=NCC2 | – | 63.3 | 16.8 | 21.1 | – | 11.7 µM | 40.3 | 41.8 | 21.5 | 82.4 | 11.8 µM | – | – | – | – | – | – | –
4 | O=C1CSc2nc3ccccc3n2/C=N\N1 | > 100 | > 100 | > 100 | > 100 | > 100 | – | > 100 | > 100 | > 100 | > 100 | – | – | – | – | – | – | – | –
5 | NC(=Nc1ccc(O)cc1)S(=O)(=O)O | > 100 | > 100 | – | > 100 | > 100 | > 100 µM | > 100 | > 100 | > 100 | > 100 | > 100 µM | – | – | – | – | – | – | –
6 | Cc1cc(O)c2c(c1O)C(=O)C13C(=C2O)C(=O)C2C(O)C1C1C(O)C3C(=O)C3=C(O)c4c(O)cc(C)c(O)c4C(=O)C321 (stereo not given) | – | 12.2 | 0.59 | 0.468 | – | 0.327 µM | 0.253 | 0.543 | – | – | – | – | – | – | – | – | – | –
7 | CC(=O)[C@@H]1CCC=C2CC[C@]3(C)[C@@H](CC[C@@H]4[C@@]5(C)CCCNC(C)(C)[C@@H]5CC[C@]43C)[C@H]21 | 3.45 | 3.8 | 3.35 | 3.69 | – | – | 3.79 | 3.5 | 3.16 | – | – | 1.88 | 1.98 | 1.81 | 2.01 | 2.03 | 1.93 | 1.73
8 | COc1cc2c(c(OC)c1OC)-c1ccc(SC)c(=O)cc1[C@@H](OC(C)=O)CC2 | > 100 | – | > 100 | – | > 100 | > 100 µM | – | – | > 100 | 0.194 | – | – | – | – | – | – | – | –
9 | O=C(N=C1SCCN1C(=O)C(C(F)(F)F)C(F)(F)F)C(C(F)(F)F)C(F)(F)F | > 100 | > 100 | > 100 | > 100 | > 100 | > 100 µM | > 100 | > 100 | – | > 100 | > 100 µM | – | – | – | – | – | – | –
10 | COc1ccc(S(=O)(=O)O)cc1-n1nc(C(=O)Nc2ccccc2)n[n+]1-c1cc(S(=O)(=O)[O-])ccc1OC | > 100 | > 100 | > 100 | – | > 100 | > 100 µM | > 100 | > 100 | > 100 | > 100 | > 100 µM | – | – | – | – | – | – | –
11 | O=C(NCCC(F)(F)C(F)(F)C(F)(F)C(F)(F)F)NC1OC(CO)C(O)C(O)C1O (stereo not given) | > 100 | > 100 | > 100 | > 100 | > 100 | > 100 µM | – | – | > 100 | > 100 | > 100 µM | – | – | – | – | – | – | –
12 | C=C1C[C@@H](O)C[C@@]2(C)C[C@@H]3OC(=O)C(=C)[C@@H]3C[C@H]12 | – | 28.4 | 14 | 39.3 | – | 13.4 µM | 36.8 | 21.6 | 21 | 35.4 | 35.2 µM | – | – | – | – | – | – | –
13 | O=C1NC(N/N=C\C(O)C(O)C(O)CO)=N/C1=C/c1ccc(Cl)cc1 (stereo not given) | > 100 | > 100 | > 100 | > 100 | > 100 | 80.2 µM and > 100 µM | > 100 | > 100 | – | > 100 | 58.3 µM and 91.9 µM | – | – | – | – | – | – | –
14 | CC1(C)N=C(C(N)=O)c2ncn(CCO)c2N1 | > 100 | > 100 | > 100 | – | > 100 | > 100 µM | > 100 | > 100 | > 100 | > 100 | > 100 µM | – | – | – | – | – | – | –
15 | CCCCCC(=O)N[C@@H](c1ccccc1)C(O)C(=O)OC1C[C@@]2(O)C(OC(=O)c3ccccc3)C3[C@](C)(C(=O)[C@H](O)C(=C1C)C2(C)C)C(OC1OCC(O)C(O)C1O)C[C@H]1OC[C@@]31OC(C)=O (stereo not given in full) | > 100 | > 100 | > 100 | – | > 100 | > 26.1 µM | > 100 | 3.92 | > 100 | > 100 | 5.2 µM | – | – | – | – | – | – | –
16 | O=C(/C=C/c1ccsc1)c1ccco1 | 50.5 | 40.5 | 25.4 | 38.9 | 24.4 | – | 17.8 | 4.67 | 29.2 | 30.9 | 26.9 µM | – | – | – | – | – | – | –
17 | C=C1C(=O)OC2(C)C3CCC(C3)C12 (stereo not given) | 85.7 | – | > 100 | > 100 | > 100 | > 100 µM | – | 85.8 | > 100 | > 100 | > 100 µM | – | – | – | – | – | – | –
18 | CCN(CC)CCCOC(=O)/C=C/c1c(C)[nH]c(=O)[nH]c1=O | – | > 625 | > 625 | > 394 | – | > 625 µM | > 412 | > 625 | > 625 | > 625 | > 625 µM | – | – | – | – | – | – | –
19 | O=c1/c(=C\c2ccccc2)sc2n1C(c1ccccc1)C1(O)CCCCC1N=2 (stereo not given) | > 100 | – | > 100 | > 100 | > 100 | > 100 µM | > 100 | > 100 | > 100 | > 100 | > 100 µM | – | – | – | – | – | – | –
20 | CCCCCCCCCCCCCCCCSCC(COC)COP(=O)([O-])OCC[N+](C)(C)C (stereo not given) | – | 30 | 29.5 | 29.6 | – | 29.4 µM | 19.1 | 10.9 | 19.6 | 28.2 | 17 µM | – | – | – | – | – | – | –
21 | Cc1ccnc2[nH]c(-c3cccc(Cl)c3)cc(=O)c12 | > 100 | > 100 | > 100 | > 100 | > 100 | – | > 100 | > 100 | > 100 | > 100 | 0.162 µM | – | – | – | – | – | – | –
